Laboratory results published in ChEMBL document CHEMBL3039007, “Structure-based identification of OATP1B1/3 inhibitors” (Mol Pharmacol, 2013).

What was measured:
[1] = target: T1, Solute carrier organic anion transporter family member 1B3 (Homo sapiens, UniProt Q9NPD5); settings: chinese hamster, cho, 10 µM
T1 sequence (Q9NPD5 whole entry): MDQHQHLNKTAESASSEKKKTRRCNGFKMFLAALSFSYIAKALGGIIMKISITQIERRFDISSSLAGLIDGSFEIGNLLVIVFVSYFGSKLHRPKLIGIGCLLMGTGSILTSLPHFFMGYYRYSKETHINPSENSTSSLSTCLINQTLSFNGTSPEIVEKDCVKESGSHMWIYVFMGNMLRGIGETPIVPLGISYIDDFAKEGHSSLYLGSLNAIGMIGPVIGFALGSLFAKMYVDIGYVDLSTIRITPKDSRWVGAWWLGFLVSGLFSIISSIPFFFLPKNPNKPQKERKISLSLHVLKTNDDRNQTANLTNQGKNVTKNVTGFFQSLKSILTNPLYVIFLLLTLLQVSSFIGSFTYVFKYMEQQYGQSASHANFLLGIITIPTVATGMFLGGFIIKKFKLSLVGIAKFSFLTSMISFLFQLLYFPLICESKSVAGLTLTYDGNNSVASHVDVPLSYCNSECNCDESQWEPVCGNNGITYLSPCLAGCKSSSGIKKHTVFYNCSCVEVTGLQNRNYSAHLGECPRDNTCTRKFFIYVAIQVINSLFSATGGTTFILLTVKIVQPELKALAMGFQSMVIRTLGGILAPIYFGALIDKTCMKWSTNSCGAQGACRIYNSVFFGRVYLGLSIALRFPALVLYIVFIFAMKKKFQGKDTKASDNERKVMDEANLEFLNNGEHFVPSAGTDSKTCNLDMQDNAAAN

[2] = target: T2, Solute carrier organic anion transporter family member 1B1 (Homo sapiens, UniProt Q9Y6L6); settings: chinese hamster, cho, 10 µM
T2 sequence (Q9Y6L6 whole entry): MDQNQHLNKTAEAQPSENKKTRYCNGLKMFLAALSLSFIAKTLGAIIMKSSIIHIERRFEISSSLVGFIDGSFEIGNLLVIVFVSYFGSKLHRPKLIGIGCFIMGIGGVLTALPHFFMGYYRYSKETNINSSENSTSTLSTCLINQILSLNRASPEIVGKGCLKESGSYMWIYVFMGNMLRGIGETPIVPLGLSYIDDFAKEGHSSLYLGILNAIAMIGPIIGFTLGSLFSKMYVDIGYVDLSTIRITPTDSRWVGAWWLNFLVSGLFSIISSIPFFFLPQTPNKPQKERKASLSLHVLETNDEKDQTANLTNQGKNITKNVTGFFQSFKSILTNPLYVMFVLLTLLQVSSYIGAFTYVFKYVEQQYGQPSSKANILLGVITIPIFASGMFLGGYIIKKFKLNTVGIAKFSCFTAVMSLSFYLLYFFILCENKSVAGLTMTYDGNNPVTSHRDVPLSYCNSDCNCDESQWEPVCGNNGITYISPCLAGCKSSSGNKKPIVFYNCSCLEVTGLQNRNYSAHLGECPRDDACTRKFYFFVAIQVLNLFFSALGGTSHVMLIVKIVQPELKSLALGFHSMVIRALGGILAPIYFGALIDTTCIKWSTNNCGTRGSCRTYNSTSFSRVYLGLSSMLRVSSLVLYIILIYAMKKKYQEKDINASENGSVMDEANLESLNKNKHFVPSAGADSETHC

`CC(C)CCC[C@@H](C)[C@H]1CC[C@H]2[C@@H]3CC=C4C[C@@H](O)CC[C@]4(C)[C@H]3CC[C@]12C` [CHOLESTEROL] showed a residual activity [1] of 100% and a residual activity [2] of 95.51%.
`CC[C@@H](CO)NCCN[C@@H](CC)CO.Cl` showed a residual activity [1] of 86.34% and a residual activity [2] of 71.57%.
With `COc1ccc2c(c1)c(CC(=O)OCC(=O)O)c(C)n2C(=O)c1ccc(Cl)cc1` [ACEMETACIN] the residual activity [1] was 84.99% and the residual activity [2] was 57.75%.
With `CN1CCN(CC/C=C2/c3ccccc3Sc3ccc(S(=O)(=O)N(C)C)cc32)CC1` [THIOTHIXENE] the residual activity [1] was 115.8% and the residual activity [2] was 72.97%.
`CO[C@@H]1[C@@H](OC(N)=O)[C@@H](O)[C@H](Oc2ccc3c([O-])c(NC(=O)c4ccc(O)c(CC=C(C)C)c4)c(=O)oc3c2C)OC1(C)C.[Na+]` [NOVOBIOCIN SODIUM] was tested, and the residual activity [1] was 47.15% and the residual activity [2] was 56.21%.
`CC1(C)[C@H](O)C[C@H](O)[C@]2(C)[C@H]3CC[C@@]4(C)[C@H](c5ccoc5)OC(=O)[C@H]5O[C@]54[C@]3(C)C(=O)C[C@@H]12` was tested, and the residual activity [1] was 93.94% and the residual activity [2] was 48.25%.
Compound `CN(C)C(=O)C(CCN1CCC(O)(c2ccc(Cl)cc2)CC1)(c1ccccc1)c1ccccc1.Cl` [LOPERAMIDE HYDROCHLORIDE] has a residual activity [1] of 94.1% and a residual activity [2] of 51.98%.
With `C#C[C@]1(OC(C)=O)CC[C@H]2[C@@H]3CCC4=CC(=O)CC[C@@H]4[C@H]3CC[C@@]21C` [NORETHINDRONE ACETATE] the residual activity [1] was 104.9% and the residual activity [2] was 106.9%.
With `CCCN1C[C@H](CSC)C[C@@H]2c3cccc4[nH]cc(c34)C[C@H]21.CS(=O)(=O)O` [PERGOLIDE MESYLATE] the residual activity [1] was 85.27% and the residual activity [2] was 90.15%.
`COc1cc2ccc(=O)oc2c(OC)c1OC` [FRAXIDIN METHYL ETHER] showed a residual activity [1] of 92.79% and a residual activity [2] of 92.39%.
`CC(=O)OCC(=O)[C@@]1(O)[C@H](C)C[C@H]2[C@@H]3CCC4=CC(=O)C=C[C@]4(C)[C@@]3(F)[C@@H](O)C[C@@]21C` [DEXAMETHASONE ACETATE] showed a residual activity [1] of 88.69% and a residual activity [2] of 106%.
`CC(C)N(C(=O)CCl)c1ccccc1` [PROPACHLOR] gave a residual activity [1] of 110.5% and a residual activity [2] of 110.8%.
Compound `C=C1c2c(Cl)ccc(O)c2C(=O)C2=C(O)[C@]3(O)C(=O)C(C(N)=O)=C(O)[C@@H](N(C)C)[C@@H]3[C@@H](O)[C@H]12.O=C(O)c1cc(S(=O)(=O)O)ccc1O` [MECLOCYCLINE SULFOSALICYLATE] has a residual activity [1] of 107.8% and a residual activity [2] of 122.1%.
For `O=C1C[C@@H]2OCC=C3CN4CC[C@]56c7ccccc7N1[C@H]5[C@H]2[C@H]3C[C@H]46` [STRYCHNINE], the residual activity [1] was 93.97% and the residual activity [2] was 79.74%.
For `C[C@H]1O[C@@H](O[C@H]2[C@@H](O)C[C@H](O[C@H]3[C@@H](O)C[C@H](O[C@H]4CC[C@@]5(C)[C@H](CC[C@@H]6[C@@H]5CC[C@]5(C)[C@@H](C7=CC(=O)OC7)[C@@H](O)C[C@]65O)C4)O[C@@H]3C)O[C@@H]2C)C[C@H](O)[C@@H]1O` [GITOXIN], the residual activity [1] was 102.2% and the residual activity [2] was 103.4%.
`CC1(C)C(=O)[C@@H]2O[C@@H]2[C@]2(C)[C@H]3CC[C@@]4(C)[C@H](c5ccoc5)OC(=O)[C@H]5O[C@]54[C@]3(C)C(=O)C[C@@H]12` was tested, and the residual activity [1] was 74.75% and the residual activity [2] was 68.02%.
For `CC(=O)O[C@H]1CC[C@]2(C)C3=C(CC[C@H]2C1(C)C)[C@@]1(C)CC[C@H]([C@H](C)CCC=C(C)C)[C@]1(C)CC3`, the residual activity [1] was 40.21% and the residual activity [2] was 29.18%.
`Cc1ccc(N(CC2=NCCN2)c2cccc(O)c2)cc1.Cl` [PHENTOLAMINE HYDROCHLORIDE] gave a residual activity [1] of 86.01% and a residual activity [2] of 85.39%.
`C=CCSCC=C` [DIALLYL SULFIDE] showed a residual activity [1] of 95.82% and a residual activity [2] of 82.5%.
Compound `O=[N+]([O-])c1cc([As](=O)(O)O)ccc1O` [ROXARSONE] has a residual activity [1] of 90.61% and a residual activity [2] of 82.84%.
Work on `CCOC(=O)C1C(C=C(C)C)C1(C)C` (stereo not given) [CHRYSANTHEMIC ACID, ETHYL ESTER] yielded a residual activity [1] of 89.36% and a residual activity [2] of 83.17%.
Work on `NC(=O)NC1NC(=O)NC1=O` (stereo not given) [ALLANTOIN] yielded a residual activity [1] of 86.17% and a residual activity [2] of 67.4%.
`COc1cc(NS(=O)(=O)c2ccc(N)cc2)nc(OC)n1` [SULFADIMETHOXINE] gave a residual activity [1] of 103% and a residual activity [2] of 118.7%.
For `Cc1c(N(C)CS(=O)(=O)[O-])c(=O)n(-c2ccccc2)n1C.[Na+]` [DIPYRONE SODIUM], the residual activity [1] was 89.51% and the residual activity [2] was 72.95%.
Work on `CC(C)=CCc1c(O)cc2oc(C)cc(=O)c2c1O` [PEUCENIN] yielded a residual activity [1] of 169% and a residual activity [2] of 137.1%.
Work on `N=c1[nH]c(=O)c2[nH]c(=O)c(=O)[nH]c2[nH]1` [LEUCOPTERIN] yielded a residual activity [1] of 98.11% and a residual activity [2] of 136.6%.
`Cc1nc2sccn2c(=O)c1CCN1CCC(=C(c2ccc(F)cc2)c2ccc(F)cc2)CC1` [RITANSERIN] was tested, and the residual activity [1] was 101.7% and the residual activity [2] was 96.72%.
Compound `COc1ccc2c(c1)CC[C@@H]1[C@@H]2CC[C@]2(C)[C@@H](O)CC[C@@H]12` [ESTRADIOL METHYL ETHER] has a residual activity [1] of 110% and a residual activity [2] of 137.4%.
Compound `C=C(C)CCC[C@@H](C)CCOC(C)=O` has a residual activity [1] of 112.9% and a residual activity [2] of 104.4%.
With `Cc1nccc2c1[nH]c1ccccc12` [HARMAN] the residual activity [1] was 99.56% and the residual activity [2] was 81.51%.
`N[C@@H](CCC(=O)N[C@@H](CS)C(=O)NCC(=O)O)C(=O)O` [GLUTATHIONE] gave a residual activity [1] of 87.82% and a residual activity [2] of 67.16%.
Compound `CC(=O)OCC1=C(C(=O)[O-])N2C(=O)[C@@H](NC(=O)Cc3cccs3)[C@H]2SC1.[Na+]` [CEPHALOTHIN SODIUM] has a residual activity [1] of 66.3% and a residual activity [2] of 45.11%.
For `COc1ccc(-c2cc(C(F)F)nn2-c2ccc(S(N)(=O)=O)cc2)cc1F` [DERACOXIB], the residual activity [1] was 98.95% and the residual activity [2] was 127.8%.
`COc1ccc(C(=O)c2ccc(O)cc2)c(O)c1O` [2,3,4'-TRIHYDROXY-4-METHOXYBENZOPHENONE] showed a residual activity [1] of 112.1% and a residual activity [2] of 114.8%.
Work on `CC(=O)[C@H]1CC[C@H]2[C@@H]3CC(=O)C4=CC(=O)CC[C@]4(C)[C@H]3CC[C@]12C` yielded a residual activity [1] of 75.51% and a residual activity [2] of 38.54%.
`COc1ccc2c(c1)OC/C(=C/c1ccc(OC)c(OC)c1)C2=O` [SAPPANONE A TRIMETHYL ETHER] was tested, and the residual activity [1] was 100.7% and the residual activity [2] was 112%.
With `COC(=O)Nc1nc2ccc(C(=O)c3ccccc3)cc2[nH]1` [MEBENDAZOLE] the residual activity [1] was 99% and the residual activity [2] was 159.5%.
Work on `CO[C@H]1[C@H](O)[C@@H](O)[C@H](O)[C@H](O)[C@H]1O` [QUEBRACHITOL] yielded a residual activity [1] of 106.9% and a residual activity [2] of 101.4%.
`NCCc1c[nH]c2ccccc12` [TRYPTAMINE] was tested, and the residual activity [1] was 104.1% and the residual activity [2] was 101%.
`C=C[C@@](C)(O)CCC1C(=C)CCC2[C@@](C)(CO)CCC[C@]12C` (stereo partly drawn) [EPI(13)TORULOSOL] showed a residual activity [1] of 115.1% and a residual activity [2] of 109%.
Work on `COc1cc(/C=C/C(=O)O)cc(OC)c1OC` [SINAPIC ACID METHYL ETHER] yielded a residual activity [1] of 88.51% and a residual activity [2] of 80.23%.
In the case of `CC(=O)NC1CCSC1=O` (stereo not given) [CITIOLONE], the residual activity [1] is reported as 92.74% and the residual activity [2] is reported as 110.6%.
In the case of `Cc1cc(O)c(C)c(O)c1C(=O)O` [3-METHYLORSELLINIC ACID], the residual activity [1] is reported as 114.8% and the residual activity [2] is reported as 116.2%.
`COc1ccc(C2CC(=O)c3ccc(OC)cc3O2)cc1` (stereo not given) [LIQUIRITIGENIN DIMETHYL ETHER] was tested, and the residual activity [1] was 114.3% and the residual activity [2] was 104.2%.
`OCc1ccccc1O[C@@H]1O[C@H](CO)[C@@H](O)[C@H](O)[C@H]1O` [SALICIN] gave a residual activity [1] of 97.32% and a residual activity [2] of 85.64%.
